Literature values in PubChem BioAssay AID1259409 (Chemical Carcinogenesis Research Information System (CCRIS), 2018).

Tested on: rodent chemically induced tumor inhibition, incidence and multiplicity
Assay: CCRIS tumor inhibitor studies
Conditions: Route [Inhibitor]: ORAL, Species: HAMSTER, Promoter: NONE USED

## CCNC(=O)/C=C(C)/C=C/C=C(C)/C=C/C1=C(C)CCCC1(C)C
Carcinogen: N-NITROBIS(2-OXOPROPYL)AMINE, 60559-38-4, Dose [Inhibitor]: 0.5 OR 1.0 MMOL/KG DIET DAILY STARTING 1 WK AFTER CARCINOGEN TREATMENT AND CONTINUING THROUGH THE END OF THE STUDY (STUD, Strain/Sex: SYRIAN/MALE, Target Tissue: Type of Lesion: ND: TOTAL TUMOR, Dose [Carcinogen]: 40 MG/KG BW SINGLE ONCE
  tumour outcome (control, treated, inhibition, significance): 20/24 (83%), 37/40 (90%), -8%, not significant
Carcinogen: N-NITROBIS(2-OXOPROPYL)AMINE, 60559-38-4, Dose [Inhibitor]: 0.5 OR 1.0 MMOL/KG DIET DAILY STARTING 1 WK AFTER CARCINOGEN TREATMENT AND CONTINUING THROUGH THE END OF THE STUDY (STUD, Strain/Sex: SYRIAN/MALE, Target Tissue: Type of Lesion: PANCREAS: DUCTULAR ADENOMA, Dose [Carcinogen]: 10 MG/KG BW ONCE
  tumour outcome (control, treated, inhibition, significance): 3/22 (14%), 16/30 (53%), -279%, p<0.05
Carcinogen: N-NITROBIS(2-OXOPROPYL)AMINE, 60559-38-4, Dose [Inhibitor]: 0.5 OR 1.0 MMOL/KG DIET DAILY STARTING 1 WK AFTER CARCINOGEN TREATMENT AND CONTINUING THROUGH THE END OF THE STUDY (STUD, Strain/Sex: SYRIAN/MALE, Target Tissue: Type of Lesion: PANCREAS: DUCTULAR ADENOMA, Dose [Carcinogen]: 40 MG/KG BW ONCE
  tumour outcome (control, treated, inhibition, significance): 8/24 (33%), 33/40 (82%), -148%, not significant
Carcinogen: N-NITROBIS(2-OXOPROPYL)AMINE, 60559-38-4, Dose [Inhibitor]: 0.5 OR 1.0 MMOL/KG DIET DAILY STARTING 1 WK AFTER CARCINOGEN TREATMENT AND CONTINUING THROUGH THE END OF THE STUDY (STUD, Strain/Sex: SYRIAN/MALE, Target Tissue: Type of Lesion: PANCREAS: DUCTULAR CARCINOMA, Dose [Carcinogen]: 10 MG/KG BW ONCE
  tumour outcome (control, treated, inhibition, significance): 4/22 (18%), 10/30 (33%), -83%, not significant
Carcinogen: N-NITROBIS(2-OXOPROPYL)AMINE, 60559-38-4, Dose [Inhibitor]: 0.5 OR 1.0 MMOL/KG DIET DAILY STARTING 1 WK AFTER CARCINOGEN TREATMENT AND CONTINUING THROUGH THE END OF THE STUDY (STUD, Strain/Sex: SYRIAN/MALE, Target Tissue: Type of Lesion: PANCREAS: DUCTULAR CARCINOMA, Dose [Carcinogen]: 40 MG/KG BW ONCE
  tumour outcome (control, treated, inhibition, significance): 5/24 (21%), 20/40 (50%), -138%, not significant
Carcinogen: N-NITROBIS(2-OXOPROPYL)AMINE, 60559-38-4, Dose [Inhibitor]: 0.5 OR 1.0 MMOL/KG IN DIET STARTING 1 WK AFTER CARCINOGEN DOSE FOR DURATION OF STUDY (STUDY DURATION: 40 WK), Strain/Sex: SYRIAN/FEMALE, Target Tissue: Type of Lesion: LIVER: BENIGN TUMOR, Dose [Carcinogen]: 40 MG/KG BW SINGLE INJECTION
  tumour outcome (control, treated, inhibition, significance): 4/20 (20%), 17/37 (46%), -130%, not significant
Carcinogen: N-NITROBIS(2-OXOPROPYL)AMINE, 60559-38-4, Dose [Inhibitor]: 0.5 OR 1.0 MMOL/KG IN DIET STARTING 1 WK AFTER CARCINOGEN DOSE FOR DURATION OF STUDY (STUDY DURATION: 40 WK), Strain/Sex: SYRIAN/MALE, Target Tissue: Type of Lesion: LIVER: BENIGN TUMOR, Dose [Carcinogen]: 40 MG/KG BW SINGLE INJECTION
  tumour outcome (control, treated, inhibition, significance): 5/24 (21%), 25/41 (62%), -195%, p<0.05
Carcinogen: N-NITROBIS(2-OXOPROPYL)AMINE, 60559-38-4, Dose [Inhibitor]: 0.5 OR 1.0 MMOL/KG/D IN DIET STARTING 1 WK AFTER CARCINOGEN TREATMENT AND CONTINUING THROUGH THE END OF THE STUDY (STUDY, Strain/Sex: SYRIAN/FEMALE, Target Tissue: Type of Lesion: PANCREAS: DUCTULAR ADENOMA, Dose [Carcinogen]: 10 MG/KG BW ONCE
  tumour outcome (control, treated, inhibition, significance): 5/23 (23%), 13/25 (52%), -126%, not significant
Carcinogen: N-NITROBIS(2-OXOPROPYL)AMINE, 60559-38-4, Dose [Inhibitor]: 0.5 OR 1.0 MMOL/KG/D IN DIET STARTING 1 WK AFTER CARCINOGEN TREATMENT AND CONTINUING THROUGH THE END OF THE STUDY (STUDY, Strain/Sex: SYRIAN/FEMALE, Target Tissue: Type of Lesion: PANCREAS: DUCTULAR ADENOMA, Dose [Carcinogen]: 40 MG/KG BW ONCE
  tumour outcome (control, treated, inhibition, significance): 12/20 (60%), 27/37 (73%), -22%, not significant
Carcinogen: N-NITROBIS(2-OXOPROPYL)AMINE, 60559-38-4, Dose [Inhibitor]: 0.5 OR 1.0 MMOL/KG/D IN DIET STARTING 1 WK AFTER CARCINOGEN TREATMENT AND CONTINUING THROUGH THE END OF THE STUDY (STUDY, Strain/Sex: SYRIAN/FEMALE, Target Tissue: Type of Lesion: PANCREAS: DUCTULAR CARCINOMA, Dose [Carcinogen]: 10 MG/KG BW ONCE
  tumour outcome (control, treated, inhibition, significance): 6/23 (27%), 6/25 (24%), 11%, not significant
Carcinogen: N-NITROBIS(2-OXOPROPYL)AMINE, 60559-38-4, Dose [Inhibitor]: 0.5 OR 1.0 MMOL/KG/D IN DIET STARTING 1 WK AFTER CARCINOGEN TREATMENT AND CONTINUING THROUGH THE END OF THE STUDY (STUDY, Strain/Sex: SYRIAN/MALE, Target Tissue: Type of Lesion: PANCREAS: DUCTULAR ADENOMA, Dose [Carcinogen]: 10 MG/KG BW ONCE
  tumour outcome (control, treated, inhibition, significance): 3/22 (14%), 16/30 (53%), -279%, p<0.05
Carcinogen: N-NITROBIS(2-OXOPROPYL)AMINE, 60559-38-4, Dose [Inhibitor]: 0.5 OR 1.0 MMOL/KG/D IN DIET STARTING 1 WK AFTER CARCINOGEN TREATMENT AND CONTINUING THROUGH THE END OF THE STUDY (STUDY, Strain/Sex: SYRIAN/MALE, Target Tissue: Type of Lesion: PANCREAS: DUCTULAR ADENOMA, Dose [Carcinogen]: 40 MG/KG BW ONCE
  tumour outcome (control, treated, inhibition, significance): 8/24 (33%), 33/40 (82%), -148%, not significant
Carcinogen: N-NITROBIS(2-OXOPROPYL)AMINE, 60559-38-4, Dose [Inhibitor]: 0.5 OR 1.0 MMOL/KG/D IN DIET STARTING 1 WK AFTER CARCINOGEN TREATMENT AND CONTINUING THROUGH THE END OF THE STUDY (STUDY, Strain/Sex: SYRIAN/MALE, Target Tissue: Type of Lesion: PANCREAS: DUCTULAR CARCINOMA, Dose [Carcinogen]: 10 MG/KG BW ONCE
  tumour outcome (control, treated, inhibition, significance): 4/22 (18%), 10/30 (33%), -83%, not significant
Carcinogen: N-NITROBIS(2-OXOPROPYL)AMINE, 60559-38-4, Dose [Inhibitor]: 0.5 OR 1.0 MMOL/KG/D IN DIET STARTING 1 WK AFTER CARCINOGEN TREATMENT AND CONTINUING THROUGH THE END OF THE STUDY (STUDY, Strain/Sex: SYRIAN/MALE, Target Tissue: Type of Lesion: PANCREAS: DUCTULAR CARCINOMA, Dose [Carcinogen]: 40 MG/KG BW ONCE
  tumour outcome (control, treated, inhibition, significance): 5/24 (21%), 20/40 (50%), -138%, not significant
Carcinogen: N-NITROBIS(2-OXOPROPYL)AMINE, 60599-38-4, Dose [Inhibitor]: 0.5 OR 1 MMOL/KG DIET DAILY STARTING 1 WK AFTER CARCINOGEN TREATMENT AND CONTINUING THROUGH THE END OF THE STUDY (STUDY, Strain/Sex: SYRIAN/FEMALE, Target Tissue: Type of Lesion: PANCREAS: DUCTULAR CARCINOMA, Dose [Carcinogen]: 40 MG/KG BW ONCE
  tumour outcome (control, treated, inhibition, significance): 6/20 (30%), 16/37 (43%), -43%, not significant
Carcinogen: N-NITROBIS(2-OXOPROPYL)AMINE, 60599-38-4, Dose [Inhibitor]: 0.5 OR 1.0 MMOL/KG/D IN DIET STARTING 1 WK AFTER CARCINOGEN TREATMENT AND CONTINUING THROUGH THE END OF THE STUDY (STUDY, Strain/Sex: SYRIAN/FEMALE, Target Tissue: Type of Lesion: PANCREAS: DUCTULAR CARCINOMA, Dose [Carcinogen]: 40 MG/KG BW ONCE
  tumour outcome (control, treated, inhibition, significance): 6/20 (30%), 16/37 (43%), -43%, not significant
Carcinogen: N-NITROSOBIS(2-OXYPROPYL)AMINE, 60599-38-4, Dose [Inhibitor]: 0.05, 0.1 OR 0.2 MILLIMOLAR/KG DIET FOR 32 WK STARTING 1 WK AFTER THE CARCINOGEN DOSE (STUDY DURATION: 33 WK), Strain/Sex: SYRIAN/FEMALE, Target Tissue: Type of Lesion: COMMON DUCT: ADENOMA, Dose [Carcinogen]: 40 MG/KG ONCE
  tumour outcome (control, treated, inhibition, significance): 4/10 (40%), 7/26 (32%), 20%, not significant
